In patent US20250263686A1, “METHODS OF INHIBITING NUCLEASE ACTIVITY, METHODS OF ISOLATING NUCLEI FROM CELLS, AND METHODS FOR EXTENDING DNA” (NATIONAL CHENG KUNG UNIVERSITY, priority 2024, published 2025):
Each block holds one molecule with its values, some of them ahead of it.

Assays:
RNase A = target: T1, RNase A (Bos taurus, UniProt P61823); assay: RNaseAlert fluorescent assay with RNase A; assay type: biochemical; conditions: RNase A 50 ng, 10 minutes at ambient temperature, FIG. 9
T1 sequence (P61823 27-150): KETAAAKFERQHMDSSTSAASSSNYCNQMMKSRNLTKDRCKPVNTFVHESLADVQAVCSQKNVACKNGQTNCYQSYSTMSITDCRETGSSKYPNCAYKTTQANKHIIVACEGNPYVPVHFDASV
Experimental: (§1) The RNaseAlert™ oligo (50 nM) was prepared in pancreatic lysis buffer with a final volume of 25 μL, containing the specified additives (pancreatic lysate, Cu^2+-citric acid, or various nucleases) in FIG. 9. After incubating at ambient temperature for 10 minutes, the reactions were diluted to 150 μL with the same buffer, excluding substrates and lysate, for fluorescence quantification in triplicate of 50 μL.

micrococcal nuclease = micrococcal nuclease (Staphylococcus aureus, UniProt P00644); assay: RNaseAlert fluorescent assay with micrococcal nuclease; assay type: biochemical; conditions: micrococcal nuclease 200 gel units, 10 minutes at ambient temperature, FIG. 9
Experimental: as §1

benzonase = benzonase (Serratia marcescens, UniProt P13717); assay: RNaseAlert fluorescent assay with benzonase; assay type: biochemical; conditions: benzonase 20 units, 10 minutes at ambient temperature, FIG. 9
Sequence of benzonase (P13717 22-266): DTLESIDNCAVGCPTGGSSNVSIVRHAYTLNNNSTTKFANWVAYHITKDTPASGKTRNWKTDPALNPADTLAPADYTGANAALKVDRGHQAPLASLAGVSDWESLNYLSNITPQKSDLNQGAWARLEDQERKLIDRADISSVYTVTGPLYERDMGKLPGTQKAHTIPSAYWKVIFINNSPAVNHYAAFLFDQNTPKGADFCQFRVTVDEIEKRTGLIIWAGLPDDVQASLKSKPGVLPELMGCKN
Experimental: as §1

pancreatic nucleases = assay: RNaseAlert fluorescent assay of nuclease activity in crude pancreatic lysate; assay type: biochemical, murine; conditions: for inhibition of nuclease activity by Cu2+ in the presence of chelators: 2 mM CuSO4 plus 2 mM chelator, FIG. 10
Experimental: The crude pancreatic lysate was prepared by lyzing 10 mg of murine pancreas in 400 μL of lysis buffer (HEPES pH 7.2 20 mM, NaCl 146 mM, CaCl2 1 mM, MgCl2 21 mM, TWEEN® 20 0.1%, NP-40 0.1%, and digitonin 0.01%). The lysis was performed by bead beating (10 seconds, 4500 rpm) in 2 ml plastic tubes containing 6 glass beads of 2.5-mm diameter. The lysate was subjected to centrifugation at 17,000 RCF for 1 minute before the cleared nuclease-laden supernatant was kept for the assays.
To detect the nuclease activity, an RNaseAlert™ oligo made of chimeric DNA-RNA-DNA with a green fluorescence molecule on one end and a quencher on the other (50 nM) was used in 25 μL final reaction volume. The reactions were conducted in the pancreatic lysis buffer with a final volume of 25 μL, containing the specified additives (pancreatic lyate, CuSO4, or ZnSO4) in FIG. 5. After incubating at ambient temperature for 30 minutes, the reactions were diluted with 150 μL of the same buffer, excluding substrates and the lysate. Fluorescence detection was performed in triplicate, with excitation at 490 nm and emission at 520 nm.
(§2) The RNaseAlert™ oligo (50 nM) was prepared in pancreatic lysis buffer with a final volume of 25 μL, containing the specified additives (pancreatic lysate, CuSO4, or Cu^2+-citric acid at various concentrations) in FIG. 7. After incubating at ambient temperature for 30 minutes, the reactions were diluted to 150 μL with the same buffer, excluding substrates and lysate, for fluorescence quantification in triplicate of 50 μL.
as §2, with “lysis buffer, either HEPES-SO4 at pH 4.5 or HEPES at pH 7.2,” for “lysis buffer”, “lysate, Cu^2+,” for “lysate, CuSO4,”, “or chelators) and pH levels (pH 4.5 or 7.2)” for “or Cu^2+-citric acid at various concentrations)”, “FIG. 8.” for “FIG. 7.”
The RNaseAlert™ oligo (50 nM) was prepared in the pancreatic lysis buffer to a final volume of 25 μL, containing the specified additives (pancreatic lysate, 2 mM CuSO4, or 2 mM of various chelators), as shown in FIG. 10. After incubating at ambient temperature for 30 minutes, the reactions were diluted to 150 μL with the same buffer, excluding substrates and lysate, for fluorescence quantification in triplicate of 50 μL.
The RNaseAlert™ oligo (50 nM) was prepared in either the pancreatic lysis buffer (Buffer P) or a low-pH buffer (Buffer C, composed of 25 mM citrate at pH 3 and 250 mM sucrose) to a final volume of 25 μL. The preparation contained the specified additives (pancreatic lysate, 1% DEPC, and Cu^2+-citric acid at specified concentrations) and is depicted in FIG. 11. After incubating at ambient temperature for 30 minutes, the reactions were diluted to 150 μL with the same buffer, excluding substrates and lysate, for fluorescence quantification in triplicate of 50 μL.

pancreatic nuclease = assay: RT-qPCR of nuclear mRNA (GAPDH, PSMB4) in HEK293 nuclei exposed to pancreatic lysate; assay type: biochemical, murine; conditions: 10 mM complex, pH 4.5 and 7.2, HEK293 nuclei, FIG. 12
Experimental: To mimic nuclear extraction by direct lysis of challenging organs, HEK293 cells were lysed in the presence of nuclease-rich pancreatic lysate, with or without the Cu^2+-chelator complex: Thirty μL of pancreatic lysis buffer containing 50 mM HEPES at pH 4.5 or 7.2, 1× Halt proteinase inhibitor, 2 μL of pancreatic lysate, and either 0 mM (control) or 10 mM of Cu^2+-citric acid complex from 250 mM stock solutions (at pH 4.5 and 7.2, respectively) were prepared on ice. 20,000 HEK293T cells in 2 μL of PBS were added to the lysis buffer, and the nuclei were released by rotating the cells in the fridge for 15 minutes. The nuclear pellets were obtained by centrifugation in a swing-bucket rotor at 1,000 g for 1 minute, washed twice with the same buffers excluding HALT, with the detergent in the wash buffer removed and replaced with 0.05% PVA. The washed nuclei were lysed with 15 μL of lysis buffer containing 0.2% TX-100 and […] proteinase K by vortexing at 1,200 rpm for 30 minutes at 37° C. The lysate was divided equally into 20 μL RT reactions, each containing RNA lysates, 0.2 μL of PMSF (50 mM in DMSO), 1× RT buffer (Tris-HCl pH 8.3, 50 mM; KCl, 75 mM; MgCl2, 3 mM; DTT, 5 mM), dNTPs (final concentration 0.5 mM each), homemade rat RNase inhibitor (100 ng), PVA (0.05%), T23VN (1 μM), and either 0 (for genomic DNA control) or 100 ng of homemade reverse transcriptase. […]

[1] = Precipitation by optical density at 600 nm, with or without bovine serum albumin; assay type: physicochemical; conditions: for protein aggregation / precipitation with bovine serum albumin (visual and OD600): BSA 10 g/L, pH 4.5, 5.5 and 7.2, FIG. 6
Experimental: A total of 180 μL of reactions per well were prepared at ambient temperature in a 96-well plate. These reactions contained various buffers (none or 100 mM) at specified pH levels, Cu^2+ salts in either sulfate (no pH adjustment) or citrate form (at pH 4.5 or 7.2, as specified) at the indicated concentrations, and bovine serum albumin (10 g/L final concentration) in FIG. 6. The reactions were prepared in triplicate, photographed directly (FIG. 6, lower), and measured for optical density at 600 nm (FIG. 6, upper) to indicate precipitation.

TdT [2] = target: T2, TdT (Bos taurus, UniProt P06526); assay: TdT tailing of ssDNA oligo, electrophoresis and silver staining; assay type: biochemical; conditions: dATP 2 mM, FIG. 1
T2 construct: purchased
T2 sequence (P06526 whole entry): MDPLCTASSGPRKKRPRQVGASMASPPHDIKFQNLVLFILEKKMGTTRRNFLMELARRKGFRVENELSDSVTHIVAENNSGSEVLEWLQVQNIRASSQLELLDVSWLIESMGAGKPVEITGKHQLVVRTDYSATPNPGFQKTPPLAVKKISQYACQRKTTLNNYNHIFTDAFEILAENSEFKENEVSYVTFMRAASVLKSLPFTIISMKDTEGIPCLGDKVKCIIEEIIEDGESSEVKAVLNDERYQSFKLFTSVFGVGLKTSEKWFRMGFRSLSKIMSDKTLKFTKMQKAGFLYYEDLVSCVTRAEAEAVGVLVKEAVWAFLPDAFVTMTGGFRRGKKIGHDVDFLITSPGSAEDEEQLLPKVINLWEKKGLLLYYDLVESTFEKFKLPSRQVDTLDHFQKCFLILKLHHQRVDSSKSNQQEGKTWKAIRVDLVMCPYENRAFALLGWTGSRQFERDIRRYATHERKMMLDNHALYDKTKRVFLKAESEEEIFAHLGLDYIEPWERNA
Experimental: 0.5 pmole of an ssDNA oligo (SEQ ID NO: 1) was incubated in 10 μL volumes of various compositions plus dATP (2 mM) and commercial TdT (0.25 μL) at 37° C., 45° C., 55° C., 65° C., 75° C. for 30, 5, 5, 5, 20 minutes, respectively. All the reaction was used for electrophoresis (FIG. 1).

TdT [3] = target: T2, TdT; assay: TdT tailing of 3' recessed-end dsDNA substrate, electrophoresis and silver staining; assay type: biochemical; conditions: 37° C. for 60 minutes; for TdT tailing of 3' recessed-end substrate, alternative ingredients: compared with dATP and Co2+ buffer, FIG. 3
Experimental: 3′ recessed dsDNA was prepared by annealing 25 μM each of SEQ ID NO: 2 and SEQ ID NO: 3 in Tris-HCl pH 8 (25 mM), NaCl (12.5 mM), and EDTA (0.25 mM). 2.5 pmole of the annealed substrate was incubated in 20 μL of reaction mixtures containing PMSF (0.5 mM), dATP (2 mM), TRITON® X-100 (0.1%), Tris-acetate pH 7.9 (20 mM), and either Mg^2+ or Co^2+ in chloride salt form (M^2+, 0.75 mM) as tailing cofactors, with (+) or without (−) of TdT (0.25 μL) at 37° C. for 60 minutes followed by 75° C. for 20 minutes. Subsequently, all the reactions were loaded for electrophoresis.
5 pmole of the 3′ recessed-end substrate as in Example 2 was incubated in 10 μL of reaction containing HEPES (H) or Tris-acetate (T) pH 7.9 (20 mM), dATP (dA) or dGTP (dG) (2 mM), CoCl2 (Co) or MnCl2 (Mn) (0.75 or 2 mM), DTT (0 or 0.2 mM), and TdT (0 or 0.25 μL) at 37° C. for 60 minutes followed by 75° C. for 20 minutes before loading half of the samples for electrophoresis (FIG. 3).

Compound: O=C(O)CC(O)(CC(=O)O)C(=O)O.[Cu].[Cu] [Cu^2+-citric acid complex, dicopper; 2-hydroxypropane-1,2,3-tricarboxylic acid]
- blocking of RNase A activity (RNase A): capable of blocking the activities
- blocking of micrococcal nuclease activity (micrococcal nuclease): capable of blocking the activities
- blocking of benzonase activity (benzonase): capable of blocking the activities
- inhibition of nuclease activity by Cu2+ in the presence of chelators (pancreatic nucleases; 30 minutes): still inhibited nuclease activity
- RNase inhibition compared with low-pH buffer and DEPC (pancreatic nucleases; 10 mM complex, 30 minutes, FIG. 11): comparable RNase inhibition to the low-pH buffer
- nuclease-blocking activity at acidic and neutral pH (pancreatic nucleases; pH 4.5 and pH 7.2, FIG. 8): active at both acidic and neutral pH
- blocking of pancreatic nuclease activity, chelated versus unchelated Cu2+ (pancreatic nucleases; various concentrations, 30 minutes at ambient temperature, FIG. 7): still capable of blocking pancreatic nuclease activity in a dose-dependent manner, similar or even more potent to the unchelated form
- protection of nuclear RNA from degradation by pancreatic nuclease (pancreatic nuclease): necessary to protect and retain nuclear RNA from complete degradation
- protein aggregation / precipitation with bovine serum albumin (visual and OD600) [1]: resolved this issue at all pH values tested

Compound: CC(=O)[O-].[K+] [K^+, potassium acetate]
- TdT poly(dA) tailing of ssDNA substrate (TdT [2]): detrimental to tailing

- TdT tailing of 3' recessed-end substrate, alternative ingredients (TdT [3]): not to improve
Compound: [Cl][Mn][Cl] [Mn^2+, MnCl2]

- TdT tailing of 3' recessed-end substrate, alternative ingredients (TdT [3]): detrimental
Compound: Nc1nc2c(ncn2[C@H]2C[C@H](O)[C@@H](COP(=O)(O)OP(=O)(O)OP(=O)(O)O)O2)c(=O)[nH]1 [dGTP]

Compound: [Cl][Co][Cl] [Co^2+, cobalt chloride]
- TdT poly(dA) tailing of ssDNA substrate (TdT [2]): could replace Mg^2+ for tailing the ssDNA
- TdT tailing of 3' recessed-end substrate, Co2+ versus Mg2+ (TdT [3]; M2+ 0.75 mM, dATP 2 mM, FIG. 2): nearly complete upshift of the substrate

- solubility in water (precipitation, OD600) ([1]; neutral pH, no protein, concentrations as low as 1 mM, FIG. 6): only minimally soluble
Compound: O=S(=O)([O-])[O-].[Cu+2] [Cu^2+, CuSO4]
- nuclease activity in pancreatic lysate (pancreatic nucleases; CuSO4 in pancreatic lysis buffer pH 7.2, 30 minutes at ambient temperature, FIG. 5): effectively diminished the nuclease activity
- protein aggregation / precipitation with bovine serum albumin (visual and OD600) [1]: severe protein aggregation at pH above 5.5

Compound: O=C(O)CN(CC(=O)O)CC(=O)O.[Cu] [Cu^2+ with nitrilotriacetic acid (NTA), copper; 2-[bis(carboxylatomethyl)amino]acetate;hydron]
- inhibition of nuclease activity by Cu2+ in the presence of chelators (pancreatic nucleases; 30 minutes): still inhibited nuclease activity

- TdT tailing of 3' recessed-end substrate, alternative ingredients (TdT [3]): does not affect the results
Compound: O[C@H](CS)[C@H](O)CS (racemic) [DTT, dithiothreitol]

Compound: CC(=O)[O-].CC(=O)[O-].[Mg+2] [Mg^2+, magnesium acetate]
- TdT poly(dA) tailing of ssDNA substrate (TdT [2]): yielded shorter tails
